Measurements as given in PMC2988379 (The Journal of Biological Chemistry, 2010).
Residue numbers refer to the chain shown, from its start. Read-outs that look alike come from different tables or passages of the source.

How the values were obtained:
Assay in all cases: intrinsic Trp fluorescence titration
Type in all cases: binding
[1] = molecular target: T1, PimB′ (Corynebacterium glutamicum PimB′, NCgl2106) (Corynebacterium glutamicum, UniProt Q8NNK8, D13A)
T1 sequence (Q8NNK8 1-381 D13A): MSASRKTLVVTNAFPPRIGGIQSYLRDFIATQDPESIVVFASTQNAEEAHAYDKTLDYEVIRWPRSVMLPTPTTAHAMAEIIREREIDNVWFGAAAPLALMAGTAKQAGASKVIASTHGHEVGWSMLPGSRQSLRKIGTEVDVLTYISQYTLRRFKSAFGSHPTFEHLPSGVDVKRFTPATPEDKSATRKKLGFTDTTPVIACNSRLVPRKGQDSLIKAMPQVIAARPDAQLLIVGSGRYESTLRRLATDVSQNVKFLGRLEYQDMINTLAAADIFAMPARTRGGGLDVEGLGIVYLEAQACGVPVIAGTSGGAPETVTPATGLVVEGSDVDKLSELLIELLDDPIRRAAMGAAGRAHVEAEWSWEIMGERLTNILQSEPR

[2] = molecular target: T2, PimB′ (Corynebacterium glutamicum PimB′, NCgl2106) (Corynebacterium glutamicum, UniProt Q8NNK8, R206S)
T2 sequence (Q8NNK8 1-381 R206S): T1 sequence (Q8NNK8 1-381 D13A) with A13D, R206S

[3] = molecular target: T3, PimB′ (Corynebacterium glutamicum PimB′, NCgl2106) (Corynebacterium glutamicum, UniProt Q8NNK8, H118S)
T3 sequence (Q8NNK8 1-381 H118S): T1 sequence (Q8NNK8 1-381 D13A) with A13D, H118S

[4] = molecular target: T4, PimB′ (Corynebacterium glutamicum PimB′, NCgl2106) (Corynebacterium glutamicum, UniProt Q8NNK8, R210S)
T4 sequence (Q8NNK8 1-381 R210S): T1 sequence (Q8NNK8 1-381 D13A) with A13D, R210S

[5] = molecular target: T5, PimB′ (Corynebacterium glutamicum PimB′, NCgl2106) (Corynebacterium glutamicum, UniProt Q8NNK8, G291S)
T5 sequence (Q8NNK8 1-381 G291S): T1 sequence (Q8NNK8 1-381 D13A) with A13D, G291S

[6] = molecular target: T6, PimB′ (Corynebacterium glutamicum PimB′, NCgl2106) (Corynebacterium glutamicum, UniProt Q8NNK8, I21A)
T6 sequence (Q8NNK8 1-381 I21A): T1 sequence (Q8NNK8 1-381 D13A) with A13D, I21A

[7] = molecular target: T7, PimB′ (Corynebacterium glutamicum PimB′, NCgl2106) (Corynebacterium glutamicum, UniProt Q8NNK8)
T7 sequence (Q8NNK8 1-381): T1 sequence (Q8NNK8 1-381 D13A) with A13D

[8] = molecular target: T8, PimB′ (Corynebacterium glutamicum PimB′, NCgl2106) (Corynebacterium glutamicum, UniProt Q8NNK8, Q22A)
T8 sequence (Q8NNK8 1-381 Q22A): T1 sequence (Q8NNK8 1-381 D13A) with A13D, Q22A

[9] = molecular target: T9, PimB′ (Corynebacterium glutamicum PimB′, NCgl2106) (Corynebacterium glutamicum, UniProt Q8NNK8, G20W)
T9 sequence (Q8NNK8 1-381 G20W): T1 sequence (Q8NNK8 1-381 D13A) with A13D, G20W

[10] = molecular target: T10, PimB′ (Corynebacterium glutamicum PimB′, NCgl2106) (Corynebacterium glutamicum, UniProt Q8NNK8, D13N)
T10 sequence (Q8NNK8 1-381 D13N): T1 sequence (Q8NNK8 1-381 D13A) with A13N

[11] = molecular target: T11, PimB′ (Corynebacterium glutamicum PimB′, NCgl2106) (Corynebacterium glutamicum, UniProt Q8NNK8, S205G)
T11 sequence (Q8NNK8 1-381 S205G): T1 sequence (Q8NNK8 1-381 D13A) with A13D, S205G

[12] = molecular target: T7, PimB′ (Corynebacterium glutamicum PimB′, NCgl2106); remark: listed apart in the source

Nc1nc2c(ncn2[C@@H]2O[C@H](COP(=O)(O)OP(=O)(O)O[C@H]3O[C@H](CO)[C@@H](O)[C@H](O)[C@@H]3O)[C@@H](O)[C@H]2O)c(=O)[nH]1 [GDP-Man]
Kd [1]: 42.8 ± 11.9 µM
Kd [2]: 42.7 ± 9.4 µM
Kd [3]: 72.4 ± 27.5 µM
Kd [4]: 40.2 ± 10.7 µM
Kd [5]: 68.7 ± 35.5 µM
Kd [6]: 56 ± 14.5 µM
Kd [7]: 19 ± 4.6 µM
Kd [8]: 60.3 ± 22.8 µM
Kd [9]: 21.9 ± 6.4 µM
Kd [10]: 30.1 ± 6.9 µM
Kd [11]: 18.7 ± 4.6 µM

Nc1nc2c(ncn2[C@@H]2O[C@H](COP(=O)(O)OP(=O)(O)O)[C@@H](O)[C@H]2O)c(=O)[nH]1 [GDP]
Kd [12]: 36.5 ± 6.9 µM
